Tests used:
Assay in all cases: relative viability (nuclei count vs DMSO), 5 days (fraction); higher = more cells survive
Dabrafenib + Tozasertib = compound: CC(C)(C)c1nc(-c2cccc(NS(=O)(=O)c3c(F)cccc3F)c2F)c(-c2ccnc(N)n2)s1 [Dabrafenib] + Cc1cc(Nc2cc(N3CCN(C)CC3)nc(Sc3ccc(NC(=O)C4CC4)cc3)n2)n[nH]1 [Tozasertib] (partner 0.1 µM)
Procedure, shortened: (§1)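 Each reported value is a median over duplicate plates. It expresses relative viability: treated-well nuclei count divided by vehicle-well nuclei count. Lung cancer cell lines in 1536-well plates were dosed by pin tool a day after seeding, alone with one drug or with a fixed anchor-drug dose plus five library-drug doses (not always all listed) in √10 steps, and nuclei were counted after 5 days.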

Dabrafenib + AZD7762 = compound: CC(C)(C)c1nc(-c2cccc(NS(=O)(=O)c3c(F)cccc3F)c2F)c(-c2ccnc(N)n2)s1 [Dabrafenib] + NC(=O)Nc1cc(-c2cccc(F)c2)sc1C(=O)N[C@H]1CCCNC1 [AZD7762] (partner 0.2 µM)
Procedure, shortened: as §1

Dabrafenib + Pemetrexed = compound: CC(C)(C)c1nc(-c2cccc(NS(=O)(=O)c3c(F)cccc3F)c2F)c(-c2ccnc(N)n2)s1 [Dabrafenib] + Nc1nc2[nH]cc(CCc3ccc(C(=O)N[C@@H](CCC(=O)O)C(=O)O)cc3)c2c(=O)[nH]1 [Pemetrexed] (partner 0.2 µM)
Procedure, shortened: as §1

VX-702 + Phenformin = compound: NC(=O)c1ccc(N(C(N)=O)c2c(F)cccc2F)nc1-c1ccc(F)cc1F [VX-702] + N=C(N)NC(=N)NCCc1ccccc1 [Phenformin] (partner 250 µM)
Procedure, shortened: as §1

Row | Cell Line | relative viability (Dabrafenib + Tozasertib; first compound 0.003 µM) | relative viability (Dabrafenib + Tozasertib; first compound 0.009487 µM) | relative viability (Dabrafenib + Tozasertib; first compound 0.03 µM) | relative viability (Dabrafenib + Tozasertib; first compound 0.09487 µM) | relative viability (Dabrafenib + Tozasertib; first compound 0.3 µM) | relative viability (Dabrafenib + AZD7762; first compound 0.003 µM) | relative viability (Dabrafenib + AZD7762; first compound 0.009487 µM) | relative viability (Dabrafenib + AZD7762; first compound 0.03 µM) | relative viability (Dabrafenib + AZD7762; first compound 0.09487 µM) | relative viability (Dabrafenib + AZD7762; first compound 0.3 µM) | relative viability (Dabrafenib + Pemetrexed; first compound 0.003 µM) | relative viability (Dabrafenib + Pemetrexed; first compound 0.009487 µM) | relative viability (Dabrafenib + Pemetrexed; first compound 0.03 µM) | relative viability (Dabrafenib + Pemetrexed; first compound 0.09487 µM) | relative viability (Dabrafenib + Pemetrexed; first compound 0.3 µM) | relative viability (VX-702 + Phenformin; first compound 0.02 µM) | relative viability (VX-702 + Phenformin; first compound 0.2 µM) | relative viability (VX-702 + Phenformin; first compound 0.6325 µM) | relative viability (VX-702 + Phenformin; first compound 2 µM)
1 | NCI-H1755 | 0.555 | 0.659 | 0.539 | 0.559 | 0.614 | 0.331 | 0.446 | 0.353 | 0.435 | 0.471 | 0.36 | 0.427 | 0.395 | 0.47 | 0.424 | 0.638 | 0.608 | 0.611 | 0.62
2 | NCI-H1793 |  | 0.464 |  |  | 0.293 |  | 0.489 |  | 0.493 | 0.434 |  | 1.08 |  | 0.911 | 1.17 | 0.284 | 0.331 | 0.415 | 0.358
3 | NCI-H1915 | 0.46 | 0.458 | 0.391 | 0.328 | 0.41 | 0.712 | 0.653 | 0.368 | 0.268 | 0.282 | 0.507 | 0.451 | 0.457 | 0.272 | 0.372 | 0.366 | 0.374 | 0.363 | 0.384
4 | NCI-H1944 | 0.252 | 0.262 | 0.233 | 0.254 | 0.239 | 0.219 | 0.537 | 0.397 | 0.457 | 0.555 | 0.569 | 0.58 | 0.587 | 0.444 | 0.668 | 0.228 | 0.202 | 0.2 | 0.161
5 | NCI-H1975 | 0.778 | 0.769 | 0.714 | 0.659 | 0.689 | 0.481 | 0.788 | 0.734 | 0.505 | 0.78 | 0.304 | 0.282 | 0.272 | 0.28 | 0.292 | 0.432 | 0.413 | 0.413 | 0.418
6 | NCI-H1993 | 0.484 | 0.586 | 0.504 | 0.571 | 0.606 | 0.555 | 0.968 | 0.792 | 0.716 | 0.826 | 0.575 | 0.571 | 0.619 | 0.55 | 0.669 | 0.498 | 0.493 | 0.518 | 0.562
7 | NCI-H2085 | 0.76 | 0.908 | 0.734 | 0.75 | 0.706 | 0.724 | 1.11 | 1.01 | 0.874 | 1.01 | 0.707 | 1.05 | 0.861 | 0.864 | 1.08 | 0.718 | 0.728 | 0.704 | 0.702
8 | NCI-H2087 |  | 0.306 | 0.254 | 0.302 | 0.264 |  | 1.24 | 1.11 | 0.928 | 1 |  | 0.64 | 0.662 | 0.695 | 0.643 | 0.481 | 0.445 | 0.422 | 0.528
9 | NCI-H2126 | 0.809 | 0.865 | 0.858 | 0.862 | 0.882 | 0.872 | 1.11 | 1.02 | 0.94 | 1.01 | 0.624 | 0.808 | 0.623 | 0.706 | 0.756 | 0.545 | 0.521 | 0.51 | 0.507
10 | NCI-H2170 | 0.805 | 0.811 | 0.632 | 0.62 | 0.727 | 0.282 | 0.841 | 0.616 | 0.64 | 0.745 | 0.274 | 0.265 | 0.26 | 0.252 | 0.282 | 0.475 | 0.442 | 0.429 | 0.451
11 | NCI-H2342 | 0.44 | 0.484 | 0.452 | 0.52 | 0.586 | 0.364 | 0.486 | 0.417 | 0.481 | 0.55 | 0.751 | 0.779 | 0.747 | 0.765 | 0.858 | 0.594 | 0.686 | 0.58 | 0.719
12 | NCI-H2347 |  | 0.548 | 0.344 | 0.621 | 0.496 |  | 0.63 | 0.562 | 0.605 | 0.598 |  | 0.445 | 0.362 | 0.399 | 0.405 | 0.574 |  | 0.395 | 0.425
13 | NCI-H2405 |  | 0.799 |  | 0.647 | 0.726 |  | 0.805 | 0.592 | 0.597 | 0.598 |  | 0.967 | 0.687 | 0.878 | 0.839 | 0.457 | 0.437 | 0.385 | 0.401
14 | NCI-H3122 | 0.427 | 0.449 | 0.391 | 0.374 | 0.367 | 0.508 | 1.03 | 1.06 | 0.986 | 1.07 | 0.19 | 0.195 | 0.214 | 0.203 | 0.215 | 0.409 | 0.388 | 0.44 | 0.424
15 | PC-3 [JPC-3] | 0.934 | 0.957 | 0.941 | 0.827 | 0.929 |  | 1.02 | 0.857 | 1.02 | 1.07 |  | 1.24 | 1.12 | 1.05 | 1.14 | 0.484 | 0.491 | 0.457 | 0.464
16 | PC-14 |  | 0.631 | 0.647 | 0.527 | 0.624 | 0.0746 | 0.375 | 0.363 | 0.297 | 0.414 |  | 0.135 | 0.133 | 0.125 | 0.154 | 0.618 | 0.547 | 0.689 | 0.483
17 | RERF-LC-KJ | 0.484 | 0.593 | 0.581 | 0.456 | 0.591 | 0.871 | 1.01 | 0.907 | 0.916 | 1.35 | 0.491 | 0.525 | 0.477 | 0.501 | 0.536 | 0.401 | 0.449 | 0.369 | 0.517

Reference: the supplement of paper PMC10307832
